According to PubChem BioAssay (NCI):
Where “and” joins values, the source holds several entries; their conditions need not be identical. Identical values can stand only once.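 96-well plates; 48 h exposure; 5 concentrations. Endpoints by linear interpolation between flanking doses. Not reached: highest tested concentration assigned. GI50 = concentration required for 50% inhibition of growth. TGI: concentration producing complete growth inhibition.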

How the values were obtained:
Assay in all cases: NCI tumour cell line growth inhibition, 48 h
SK-MEL-5 melanoma = system: SK-MEL-5 melanoma
786-0 renal = system: 786-0 renal
T-47D breast = system: T-47D breast
K-562 leukemia = system: K-562 leukemia
SW-620 colon = system: SW-620 colon
SF-539 CNS = system: SF-539 CNS
MOLT-4 leukemia = system: MOLT-4 leukemia
NCI-H460 lung = system: NCI-H460 lung
CAKI-1 renal = system: CAKI-1 renal
MALME-3M melanoma = system: MALME-3M melanoma

SMILES: O=C(NCc1ccco1)c1ccc(NC2=C(Cl)C(=O)N(Cc3ccccc3)C2=O)cc1
- GI50 (SK-MEL-5 melanoma): 27.4 µM
- TGI (SK-MEL-5 melanoma): 73.4 µM
- GI50 (786-0 renal): 12.6 µM
- TGI (786-0 renal): 28.2 µM
- GI50 (T-47D breast): 41 µM
- TGI (T-47D breast): > 100 µM
- GI50 (K-562 leukemia): 21.2 µM
- TGI (K-562 leukemia): 49.7 µM
- GI50 (SW-620 colon): 51.7 µM
- TGI (SW-620 colon): > 100 µM
- GI50 (SF-539 CNS): 22.2 µM
- TGI (SF-539 CNS): 41 µM
- GI50 (MOLT-4 leukemia): 14.7 µM
- TGI (MOLT-4 leukemia): 38 µM
- GI50 (NCI-H460 lung): 26.7 µM
- TGI (NCI-H460 lung): > 100 µM
- GI50 (CAKI-1 renal): 1.84 µM
- TGI (CAKI-1 renal): 3.39 µM

SMILES: OCC1OC(n2cnc3c(Cl)nc(Cl)cc32)C(O)C1O (configuration not stated)
- GI50 (MALME-3M melanoma): > 100 µM
- TGI (MALME-3M melanoma): > 100 µM
- GI50 (786-0 renal): > 100 µM
- TGI (786-0 renal): > 100 µM
- GI50 (T-47D breast): > 100 µM
- TGI (T-47D breast): > 100 µM
- GI50 (K-562 leukemia): > 100 µM
- TGI (K-562 leukemia): > 100 µM
- GI50 (SW-620 colon): > 100 µM
- TGI (SW-620 colon): > 100 µM
- GI50 (SF-539 CNS): > 100 µM
- TGI (SF-539 CNS): > 100 µM
- GI50 (MOLT-4 leukemia): > 100 µM
- TGI (MOLT-4 leukemia): > 100 µM
- GI50 (NCI-H460 lung): > 100 µM
- TGI (NCI-H460 lung): > 100 µM
- GI50 (CAKI-1 renal): > 100 µM
- TGI (CAKI-1 renal): > 100 µM

SMILES: CN(C)CCOC(c1ccccc1)c1ccccc1
- GI50 (MALME-3M melanoma): 25.2 µM
- TGI (MALME-3M melanoma): 46 µM and > 100 µM
- GI50 (SK-MEL-5 melanoma): 15.7 µM
- TGI (SK-MEL-5 melanoma): 28.2 µM and > 100 µM
- GI50 (786-0 renal): 35.1 µM
- TGI (786-0 renal): 49.8 µM and > 100 µM
- GI50 (T-47D breast): 31.4 µM
- TGI (T-47D breast): 57.2 µM and > 100 µM
- TGI (K-562 leukemia): > 100 µM
- GI50 (SW-620 colon): 35.1 µM
- TGI (SW-620 colon): 51.8 µM and > 100 µM
- TGI (MOLT-4 leukemia): > 100 µM
- GI50 (NCI-H460 lung): 26.2 µM
- TGI (NCI-H460 lung): 46 µM and > 100 µM
- GI50 (CAKI-1 renal): 38.2 µM
- TGI (CAKI-1 renal): 52.6 µM and > 100 µM

SMILES: Cc1ccc(-c2nc(N3CCCNCC3)c3oc(-c4ccccc4)nc3n2)cc1
- GI50 (MALME-3M melanoma): 1.93 µM
- TGI (MALME-3M melanoma): 3.48 µM
- GI50 (SK-MEL-5 melanoma): 1.6 µM
- TGI (SK-MEL-5 melanoma): 3.03 µM
- GI50 (786-0 renal): 1.43 µM
- TGI (786-0 renal): 2.81 µM
- GI50 (T-47D breast): 2.02 µM
- TGI (T-47D breast): 4 µM
- GI50 (SW-620 colon): 1.68 µM
- TGI (SW-620 colon): 3.21 µM
- GI50 (SF-539 CNS): 1.79 µM
- TGI (SF-539 CNS): 3.26 µM
- GI50 (MOLT-4 leukemia): 1.79 µM
- TGI (MOLT-4 leukemia): 3.58 µM
- GI50 (NCI-H460 lung): 1.85 µM
- TGI (NCI-H460 lung): 3.5 µM
- GI50 (CAKI-1 renal): 1.65 µM
- TGI (CAKI-1 renal): 3.03 µM

SMILES: CCOC(=O)/C(C#N)=C1/C(O)=C(C(=O)OC)C(C(=O)OC)=C1C(=O)OC
- TGI (MALME-3M melanoma): > 100 µM
- TGI (SK-MEL-5 melanoma): > 100 µM
- TGI (786-0 renal): > 100 µM
- TGI (K-562 leukemia): > 100 µM
- TGI (SW-620 colon): > 100 µM
- TGI (SF-539 CNS): > 100 µM
- TGI (MOLT-4 leukemia): > 100 µM
- TGI (NCI-H460 lung): > 100 µM
- TGI (CAKI-1 renal): > 100 µM

SMILES: O=S(O)CCCSSc1ccccc1
- TGI (MALME-3M melanoma): > 100 µM
- TGI (SK-MEL-5 melanoma): > 100 µM
- TGI (786-0 renal): > 100 µM
- TGI (K-562 leukemia): > 100 µM
- TGI (SW-620 colon): > 100 µM
- TGI (SF-539 CNS): 62.9 µM
- TGI (MOLT-4 leukemia): 70.2 µM
- TGI (NCI-H460 lung): > 100 µM
- TGI (CAKI-1 renal): > 100 µM

SMILES: CCC[CH2][Sn]1([CH2]CCC)[O]C(=O)c2ccc(C)cc2[O]1
- GI50 (MALME-3M melanoma): 0.327 µM
- TGI (MALME-3M melanoma): 1.44 µM
- GI50 (SK-MEL-5 melanoma): 1.38 µM
- TGI (SK-MEL-5 melanoma): 2.7 µM
- GI50 (786-0 renal): 1 µM
- TGI (786-0 renal): 2.17 µM
- GI50 (K-562 leukemia): 0.247 µM
- TGI (K-562 leukemia): 0.846 µM
- GI50 (SW-620 colon): 0.174 µM
- TGI (SW-620 colon): 0.4 µM
- GI50 (SF-539 CNS): 0.518 µM
- TGI (SF-539 CNS): 1.73 µM
- GI50 (MOLT-4 leukemia): 0.222 µM
- TGI (MOLT-4 leukemia): 0.621 µM
- GI50 (NCI-H460 lung): 1.77 µM
- TGI (NCI-H460 lung): 4.12 µM
- GI50 (CAKI-1 renal): 0.229 µM
- TGI (CAKI-1 renal): 0.669 µM

SMILES: Cc1cn2c(/C=N/N=C(N)N)c(-c3cccnc3)nc2s1
- GI50 (MALME-3M melanoma): 8.14 µM
- TGI (MALME-3M melanoma): 21.4 µM
- GI50 (SK-MEL-5 melanoma): 2.68 µM
- TGI (SK-MEL-5 melanoma): 13.7 µM
- GI50 (786-0 renal): 12.9 µM
- TGI (786-0 renal): 26.8 µM
- GI50 (T-47D breast): 1.94 µM
- TGI (T-47D breast): 12.1 µM
- GI50 (SW-620 colon): 11.5 µM
- TGI (SW-620 colon): 35.2 µM
- GI50 (MOLT-4 leukemia): 3.66 µM
- TGI (MOLT-4 leukemia): 38.6 µM
- GI50 (NCI-H460 lung): 14.7 µM
- TGI (NCI-H460 lung): 76.6 µM
- GI50 (CAKI-1 renal): 8.07 µM
- TGI (CAKI-1 renal): 22.4 µM
